# Measured values from US8791267B2, “Biaryl PDE4 inhibitors for treating inflammatory, cardiovascular and CNS disorders” (Decode Genetics EHF, priority 2007, dated 2014).
# Counter-ions that a name gives are not always drawn. Like-named read-outs stand apart in the source and are kept apart here.
# Assays:
# PDE4 = PDE4 (Homo sapiens, UniProt Q08499); test: In-vitro assay for PDE4 enzymes, real-time enzyme-coupled spectrophotometric assay (Table 9); format: biochemical
# PDE4B = PDE4B (Homo sapiens, UniProt Q07343); test: In-vitro assay for PDE4 enzymes, real-time enzyme-coupled spectrophotometric assay, PDE4B Activity (Table 10); format: biochemical
# Sequence of PDE4B (Q07343 whole entry): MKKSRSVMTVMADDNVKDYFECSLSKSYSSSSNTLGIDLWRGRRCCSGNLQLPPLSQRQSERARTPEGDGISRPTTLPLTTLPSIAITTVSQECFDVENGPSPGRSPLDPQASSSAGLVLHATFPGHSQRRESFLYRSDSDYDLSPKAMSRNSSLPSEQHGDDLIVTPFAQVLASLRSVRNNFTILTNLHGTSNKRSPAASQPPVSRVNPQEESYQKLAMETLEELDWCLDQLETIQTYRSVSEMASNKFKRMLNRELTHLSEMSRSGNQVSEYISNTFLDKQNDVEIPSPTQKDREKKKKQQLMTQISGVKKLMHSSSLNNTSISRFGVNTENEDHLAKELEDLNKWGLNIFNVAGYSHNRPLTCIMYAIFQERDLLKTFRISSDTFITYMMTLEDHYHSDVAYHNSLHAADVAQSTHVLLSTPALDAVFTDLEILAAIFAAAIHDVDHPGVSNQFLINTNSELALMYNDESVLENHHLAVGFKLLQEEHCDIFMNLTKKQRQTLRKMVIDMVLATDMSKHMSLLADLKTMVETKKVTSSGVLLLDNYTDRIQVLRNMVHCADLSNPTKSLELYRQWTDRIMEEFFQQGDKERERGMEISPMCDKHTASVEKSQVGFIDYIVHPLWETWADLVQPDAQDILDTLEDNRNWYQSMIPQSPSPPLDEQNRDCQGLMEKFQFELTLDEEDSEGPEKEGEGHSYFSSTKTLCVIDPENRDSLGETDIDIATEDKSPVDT
# [1] = human PDE4D, activity class, Table 9, read-out: hPDE4D
# [2] = human PDE4B (hPDE4B), enzyme-coupled spectrophotometric assay, read-out: PDE4B Activity, hPDE4B
# Sequence of PDE4 (Q08499 whole entry): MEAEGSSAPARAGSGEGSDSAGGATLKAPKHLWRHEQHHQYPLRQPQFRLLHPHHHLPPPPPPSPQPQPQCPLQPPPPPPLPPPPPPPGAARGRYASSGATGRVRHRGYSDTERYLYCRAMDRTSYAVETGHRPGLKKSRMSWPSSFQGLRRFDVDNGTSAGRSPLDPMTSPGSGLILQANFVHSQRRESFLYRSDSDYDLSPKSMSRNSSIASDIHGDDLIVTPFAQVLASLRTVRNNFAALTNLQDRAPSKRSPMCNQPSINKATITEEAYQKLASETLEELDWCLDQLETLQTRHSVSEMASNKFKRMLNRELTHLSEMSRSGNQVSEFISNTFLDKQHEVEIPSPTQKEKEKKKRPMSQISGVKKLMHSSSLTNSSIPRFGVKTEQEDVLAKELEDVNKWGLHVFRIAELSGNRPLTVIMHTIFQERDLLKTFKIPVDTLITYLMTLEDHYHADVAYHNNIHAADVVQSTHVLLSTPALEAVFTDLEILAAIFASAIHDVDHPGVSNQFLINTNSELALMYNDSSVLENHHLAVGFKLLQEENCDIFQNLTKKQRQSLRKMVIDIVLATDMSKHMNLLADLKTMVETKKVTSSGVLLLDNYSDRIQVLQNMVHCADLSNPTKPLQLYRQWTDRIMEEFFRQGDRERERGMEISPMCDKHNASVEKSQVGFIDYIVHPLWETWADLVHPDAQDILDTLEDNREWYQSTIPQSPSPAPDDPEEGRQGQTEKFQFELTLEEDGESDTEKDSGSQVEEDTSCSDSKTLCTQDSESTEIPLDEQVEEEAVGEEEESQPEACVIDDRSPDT
IC50 (PDE4; [1]) [µM],IC50 (PDE4B; [2]) [µM],Compound,IC50 (PDE4) [µM],IC50 (PDE4B) [µM]
< 5,21 to 40,"COc1ccc(C(C)(O)c2ccc(NC(C)=O)cc2)c(F)c1-c1cccc(Cl)c1 (racemic) [P-530, N-{4-[1-(3′-Chloro-2-fluoro-6-methoxy-biphenyl-3-yl)-1-hydroxy-ethyl]-phenyl}-acetamide]",,
5 to 20,5 to 20,"COc1ccc([C@](C)(O)c2ccc(NC(C)=O)cc2)c(F)c1-c1cccc(Cl)c1 (single isomer, unassigned) [P-560]",,
,5 to 20,CNC(=O)Cc1ccc(OC)c(-c2cccc([N+](=O)[O-])c2)c1 [Cmpd P-027],,
,5 to 20,COc1ccc(CO)c(O)c1-c1cccc([N+](=O)[O-])c1 [Cmpd P-149],,
< 5,< 5,"COc1ccc(Cc2ccc(F)cc2)cc1-c1cccc([N+](=O)[O-])c1 [P-001, 5-(4-Fluoro-benzyl)-2-methoxy-3′-nitro-biphenyl]",,
< 5,< 5,COC(=O)c1cccc(-c2cc(Cc3ccc(F)cc3)ccc2OC)c1 [P-002],,
< 5,5 to 20,"COc1ccc(Cc2ccc(F)cc2)cc1-c1ccc2nonc2c1 [P-004, 5-[5-(4-Fluoro-benzyl)-2-methoxy-phenyl]-benzo[1,2,5]oxadiazole]",,
< 5,< 5,"COc1ccc(Cn2ccnc2)cc1-c1ccc2nonc2c1 [P-006, 5-(5-Imidazol-1-ylmethyl-2-methoxy-phenyl)-benzo[1,2,5]oxadiazole]",,
< 5,5 to 20,"COc1ccc(Cn2nnc3ccccc32)cc1-c1cccc([N+](=O)[O-])c1 [P-007, 1-(6-Methoxy-3′-nitro-biphenyl-3-ylmethyl)-1H-benzotriazole]",,
< 5,< 5,COc1ccc(Cc2ccncc2)cc1-c1cccc([N+](=O)[O-])c1 [P-008],,
< 5,< 5,"COc1ccc(Cc2ccc(=O)[nH]n2)cc1-c1cccc([N+](=O)[O-])c1 [P-009, 6-(6-Methoxy-3′-nitro-biphenyl-3-ylmethyl)-2H-pyridazin-3-one]",,
< 5,< 5,"COc1ccc(Cn2ccc3ccccc32)cc1-c1cccc([N+](=O)[O-])c1 [P-010, 1-(6-Methoxy-3′-nitro-biphenyl-3-ylmethyl)-1H-indole]",,
< 5,< 5,COc1ccc(Cc2ccncc2)cc1-c1ccc2nonc2c1 [P-011],,
5 to 20,5 to 20,"COc1ccc(Cc2ccc(=O)[nH]n2)cc1-c1ccc2nonc2c1 [P-012, 6-(3-Benzo[1,2,5]oxadiazol-5-yl-4-methoxy-benzyl)-2H-pyridazin-3-one]",,
5 to 20,5 to 20,"COc1ccc(Cn2cnc3ccccc32)cc1-c1ccc2nonc2c1 [P-014, 5-(5-Benzoimidazol-1-ylmethyl-2-methoxy-phenyl)-benzo[1,2,5]oxadiazole]",,
< 5,21 to 40,"COc1ccc(Oc2ccc(=O)[nH]n2)cc1-c1cccc([N+](=O)[O-])c1 [P-015, 6-(6-Methoxy-3′-nitro-biphenyl-3-yloxy)-2H-pyridazin-3-one]",,
< 5,< 5,"COc1ccc(Cc2ccncc2)c(O)c1-c1cccc([N+](=O)[O-])c1 [P-017, 6-methoxy-3′-nitro-3-pyridin-4-ylmethyl-biphenyl-2-ol]",,
,< 5,"COc1ccc(Cc2ccncc2)nc1-c1cccc([N+](=O)[O-])c1 [P-019, 3-methoxy-2-(3-nitro-phenyl)-6-pyridin-4-ylmethyl-pyridine]",,
,,"NC(=O)Oc1ccc(Cc2ccc(=O)[nH]n2)cc1-c1cccc([N+](=O)[O-])c1 [P-020, Carbamic acid 3′-nitro-5-(6-oxo-1,6-dihydro-pyridazin-3-ylmethyl)-biphenyl-2-yl ester]",5 to 20,21 to 40
< 5,5 to 20,"COc1ccc(Cc2ccc3c(c2)OCO3)nc1-c1cccc([N+](=O)[O-])c1 [P-021, 6-benzo[1,3]dioxol-5-ylmethyl-3-methoxy-2-(3-nitro-phenyl)-pyridine]",,
< 5,5 to 20,"COC(=O)c1cccc(-c2cc(Cn3cncn3)ccc2OC)c1 [P-022, 2′-Methoxy-5′-[1,2,4]triazol-1-ylmethyl-biphenyl-3-carboxylic acid methyl ester]",,
< 5,5 to 20,"COc1ccc(Cc2ccc(F)cc2)nc1-c1cccc([N+](=O)[O-])c1 [P-023, 6-(4-fluoro-benzyl)-3-methoxy-2-(3-nitro-phenyl)-pyridine]",,
< 5,21 to 40,"COc1ccc(Cn2cncn2)nc1-c1cccc([N+](=O)[O-])c1 [P-024, 3-methoxy-2-(3-nitro-phenyl)-6-[1,2,4]triazol-1-ylmethyl-pyridine]",,
5 to 20,21 to 40,"COCc1ccc(OC)c(-c2cccc([N+](=O)[O-])c2)n1 [P-025, 3-methoxy-6-methoxymethyl-2-(3-nitro-phenyl)-pyridine]",,

IC50 (PDE4; [1]) [µM],IC50 (PDE4B; [2]) [µM],Compound,IC50 (PDE4) [µM],IC50 (PDE4B) [µM]
< 5,< 5,"COc1ccc(CN2CCCC2=O)cc1-c1cccc([N+](=O)[O-])c1 [P-029, 1-(6-Methoxy-3′-nitro-biphenyl-3-ylmethyl)-pyrrolidin-2-one]",,
5 to 20,21 to 40,"COc1ccc(COC(C)C)nc1-c1cccc([N+](=O)[O-])c1 [P-030, 6-isopropoxymethyl-3-methoxy-2-(3-nitro-phenyl)-pyridine]",,
,21 to 40,"COc1ccc(CN2CCCC2=O)nc1-c1cccc([N+](=O)[O-])c1 [P-031, 1-[5-methoxy-6-(3-nitro-phenyl)-pyridin-2-ylmethyl]-pyrrolidin-2-one]",,
5 to 20,5 to 20,"COc1ccc(CN2CCNC2=O)nc1-c1cccc([N+](=O)[O-])c1 [P-033, 1-[5-methoxy-6-(3-nitro-phenyl)-pyridin-2-ylmethyl]-imidazolidin-2-one]",,
< 5,< 5,"COc1ccc(CN2CCNC2=O)cc1-c1cccc([N+](=O)[O-])c1 [P-034, 1-(6-Methoxy-3′-nitro-biphenyl-3-ylmethyl)-imidazolidin-2-one]",,
< 5,< 5,"COc1ccc(CN2CCCCS2(=O)=O)cc1-c1cccc([N+](=O)[O-])c1 [P-035, 2-(6-Methoxy-3′-nitro-biphenyl-3-ylmethyl)-[1,2]thiazinane 1,1-dioxide]",,
< 5,5 to 20,"COc1ccc(CN2C(=O)CCC2=O)cc1-c1cccc([N+](=O)[O-])c1 [P-036, 1-(6-Methoxy-3′-nitro-biphenyl-3-ylmethyl)-pyrrolidine-2,5-dione]",,
< 5,< 5,"COc1ccc(Cn2ccnc2)cc1-c1ccc2c(c1)OCO2 [P-037, 1-(3-Benzo[1,3]dioxol-5-yl-4-methoxy-benzyl)-1H-imidazole]",,
,21 to 40,"COc1ccc(CN2C[C@@H](OC(N)=O)CC2=O)cc1-c1cccc([N+](=O)[O-])c1 [P-253, Carbamic acid (S)-1-(6-methoxy-3′-nitro-biphenyl-3-ylmethyl)-5-oxo-pyrrolidin-3-yl ester]",,
,21 to 40,"COc1ccc(Cc2cc(N)cc(O)c2)c(F)c1-c1cccc(Cl)c1 [P-324, 3-Amino-5-(3′-chloro-2-fluoro-6-methoxy-biphenyl-3-ylmethyl)-phenol]",,
< 5,,"COc1ccc(Cc2ccc(C(C)(C)N)nc2)c(F)c1-c1cccc(Cl)c1 [P-595, 1-[5-(3′-Chloro-2-fluoro-6-methoxy-biphenyl-3-ylmethyl)-pyridin-2-yl]-1-methyl-ethylamine]",,
< 5,,"COc1ccc(Cc2ccc(N3CCC(O)C3)nc2)c(F)c1-c1cccc(Cl)c1 (stereo not drawn) [P-601, 1-[5-(3′-chloro-2-fluoro-6-methoxy-biphenyl-3-ylmethyl)-pyridin-2-yl]-pyrrolidin-3-ol]",,
< 5,,"COc1ccc(Cc2ccc(N3CCC(O)C3)nc2)cc1-c1cccc(Cl)c1 (stereo not drawn) [P-602, 1-[5-(3′-chloro-6-methoxy-biphenyl-3-ylmethyl)-pyridin-2-yl]-pyrrolidin-3-ol]",,
< 5,,COc1ccc(COc2ccnc(N3CCCC3)c2)cc1-c1cccc(Cl)c1 [P-607],,
< 5,,COc1ccc(COc2ccnc(N3CCCC3)c2)c(F)c1-c1cccc(Cl)c1 [P-608],,
< 5,,"COc1ccc(Cc2ccc(C(C)N3CCC3)nc2)cc1-c1cccc(Cl)c1 (stereo not drawn) [P-609, 2-(1-azetidin-1-yl-ethyl)-5-(3′-chloro-6-methoxy-biphenyl-3-ylmethyl)-pyridine]",,
< 5,,"COc1ccc(Cc2ccc(C(C)NC(N)=O)nc2)c(F)c1-c1cccc(Cl)c1 (stereo not drawn) [P-613, {1-[5-(3′-Chloro-2-fluoro-6-methoxy-biphenyl-3-ylmethyl)-pyridin-2-yl]-ethyl}-urea hydrochloride]",,
< 5,,"FC(F)Oc1ccc(Cc2ccc(N3CCC3)nc2)cc1-c1cccc(Cl)c1 [P-614, 2-Azetidin-1-yl-5-(3′-chloro-6-difluoromethoxy-biphenyl-3-ylmethyl)-pyridine]",,
< 5,,"COc1ccc(Cc2ccc(N3CC[C@H]3C(N)=O)nc2)c(F)c1-c1cccc(Cl)c1 [P-615, (S)-1-[5-(3′-chloro-2-fluoro-6methoxy-biphenyl-3-ylmethyl)-pyridin-2-yl]-azetidine-2-carboxylic acid amide]",,
< 5,,"NC(=O)Nc1ccc(Cc2ccc(OC(F)F)c(-c3cccc(Cl)c3)c2)cn1 [P-616, [5-(3′-Chloro-6-difluoromethoxy-biphenyl-3-ylmethyl)-pyridin-2-yl]-urea]",,
< 5,,"COc1ccc(Cc2ccc(N3CC[C@@H]3C(N)=O)nc2)c(F)c1-c1cccc(Cl)c1 [P-617, (R)-1-[5-(3′-chloro-2-fluoro-6methoxy-biphenyl-3-ylmethyl)-pyridin-2-yl]-azetidine-2-carboxylic acid amide]",,
< 5,,"CN(C)CC(=O)Nc1ccc(Cc2ccc(OC(F)F)c(-c3cccc(Cl)c3)c2)cn1 [P-618, N-[5-(3′-Chloro-6-difluoromethoxy-biphenyl-3-ylmethyl)-pyridin-2-yl]-2-dimethylamino-acetamide hydrochloride]",,
< 5,,"COc1ccc(Cc2ccc(N(C)CC(N)=O)nc2)c(F)c1-c1cccc(Cl)c1 [P-622, 2-{[5-(3′-Chloro-2-fluoro-6-methoxy-biphenyl-3-ylmethyl)-pyridin-2-yl]-methyl-amino}-acetamide]",,
